Test results from patent US9133167B2, “Antibacterial quinoline derivatives” (JANSSEN PHARMACEUTICA NV, priority 2012, dated 2015).
≈ marks a conversion by molar mass, not a printed value.

System: Staphylococcus aureus (ATCC29213)
Test: Microtitre plate assay, IC90 for bacterial growth, Staphylococcus aureus strain
Type: cell-based
Conditions: 90% inhibitory concentration for bacterial growth, 24 hours at 37° C.; for IC90: read-out: IC90 (μg/ml) STA B29213
Protocol: D.2. In-Vitro Method for Testing Compounds for Anti-Bacterial Activity Against a Non-Mycobacterial Strain
Preparation of Bacterial Suspensions for Susceptibility Testing:
The bacteria used in this study were grown overnight in flasks containing 100 ml Mueller-Hinton Broth (Becton Dickinson—cat. no. 275730) in sterile de-ionized water, with shaking, at 37° C. Stocks (0.5 ml/tube) were stored at −70° C. until use. Bacteria titrations were performed in microtiter plates to detect the TCID50, in which TCID50 represents the dilution that gives rise to bacterial growth in 50% of inoculated cultures. In general, an inoculum level of approximately 100 TCID50 was used for susceptibility testing.
Anti Bacterial Susceptibility Testing: IC90 Determination
Flat-bottom, sterile 96-well plastic microtiter plates were filled with 180 μl of sterile deionized water, supplemented with 0.25% BSA. Subsequently, stock solutions (7.8× final test concentration) of compounds were added in 45 μl volumes in column 2 Serial five-fold dilutions (45 μl in 180 μl) were made directly in the microtiter plates from column 2 to reach column 11. Untreated control samples with (column 1) and without (column 12) inoculum were included in each microtiter plate. Depending on the bacteria type, approximately 10 to 60 CFU per well of bacteria inoculum (100 TCID50), in a volume of 100 μl in 2.8× Mueller-Hinton broth medium, was added to the rows A to H, except column 12. The same volume of broth medium without inoculum was added to column 12 in row A to H. The cultures were incubated at 37° C. for 24 hours under a normal atmosphere (incubator with open air valve and continuous ventilation). At the end of incubation, one day after inoculation, the bacterial growth was quantitated fluorometrically. Therefore resazurin (0.6 mg/ml) was added in a volume of 20 μl to all wells 3 hours after inoculation, and the plates were re-incubated overnight. A change in colour from blue to pink indicated the growth of bacteria. The fluorescence was read in a computer-controlled fluorometer (Cytofluor Biosearch) at an excitation wavelength of 530 nm and an emission wavelength of 590 nm. The % growth inhibition achieved by the compounds was calculated according to standard methods. The IC90 (expressed in μg/ml) was defined as the 90% inhibitory concentration for bacterial growth. The results are shown in Table 7 for an assay using a Staphylococcus aureus strain.

| IC90 (μg/ml) STA B29213 [µg/mL] | IC90 [µg/mL] | Compound |
| --- | --- | --- |
| >32.54 | – | COc1nc2ccc(-c3ccncc3)cc2cc1C(c1ccccc1)C1(O)CCN(Cc2ccccc2)CC1 (racemic) [Compound 31] |
| >28.69 | – | CSc1nc2ccccc2cc1C(c1ccccc1)C1(O)CCN(Cc2ccccc2)CC1 (racemic) [Compound 32] |
| 14.96 (≈ 31.6 µM) | – | COc1nc2ccc(Cl)cc2cc1C(c1ccccc1)C1(O)CCN(Cc2ccccc2)CC1 (racemic) [Compound 33] |
| >29.57 | – | COc1ccc2nc(OC)c(C(c3ccccc3)C3(O)CCN(Cc4ccccc4)CC3)cc2c1 (racemic) [Compound 34] |
| >31.84 | – | COc1nc2ccc(-c3ccco3)cc2cc1C(c1ccccc1)C1(O)CCN(Cc2ccccc2)CC1 (racemic) [Compound 37] |
| >29.57 | – | CSc1nc2ccc(C)cc2cc1C(c1ccccc1)C1(O)CCN(Cc2ccccc2)CC1 (racemic) [Compound 41] |
| 20.60 (≈ 39.8 µM) | – | COc1nc2cc(Br)ccc2cc1C(c1ccccc1)C1(O)CCN(Cc2ccccc2)CC1 (racemic) [Compound 43] |
| >32.65 | – | COc1nc2cccc(Br)c2cc1C(c1ccccc1)C1(O)CCN(Cc2ccccc2)CC1 (racemic) [Compound 44] |
| >43.79 | – | COc1nc2ccc(-c3cccnc3)cc2cc1C(c1ccc(Cl)cc1)C1(O)CCN(Cc2ccccc2)CC1.O=C(O)/C=C/C(=O)O (racemic) [Compound 50] |
| >42.92 | – | COc1nc2ccc(-c3ccccc3)cc2cc1C(c1ccc(Cl)cc1)C1(O)CCN(Cc2ccccc2)CC1.O=C(O)/C=C/C(=O)O (racemic) [Compound 51] |
| 19.77 | – | COc1nc2ccccc2cc1C(c1ccc(Cl)cc1)C1(O)CCN(Cc2ccccc2)CC1.O=C(O)/C=C/C(=O)O (racemic) [Compound 52] |
| >43.02 | – | COc1nc2ccc(-c3ccco3)cc2cc1C(c1ccc(Cl)cc1)C1(O)CCN(Cc2ccccc2)CC1.O=C(O)/C=C/C(=O)O (racemic) [Compound 64] |
| >49.51 | – | COc1nc2ccc(Br)cc2cc1C(c1ccc(Cl)c(C(F)(F)F)c1)C1(O)CCN(Cc2ccccc2)CC1.O=C(O)/C=C/C(=O)O (racemic) [Compound 66] |
| >43.98 | – | COc1nc2ccc(Br)cc2cc1C(c1ccccc1Cl)C1(O)CCN(Cc2ccccc2)CC1.O=C(O)/C=C/C(=O)O (racemic) [Compound 67] |
| >44.98 | – | COc1nc2ccc(-c3ccccc3)cc2cc1C(c1ccc(Cl)cc1)C1(O)CCN(Cc2ccc(C)cc2)CC1.O=C(O)/C=C/C(=O)O (racemic) [Compound 69] |
| >44.71 | – | COc1nc2ccc(-c3ccco3)cc2cc1C(c1ccc(Cl)cc1)C1(O)CCN(Cc2ccc(C)cc2)CC1.O=C(O)/C=C/C(=O)O (racemic) [Compound 70] |
| >44.46 | – | COc1nc2ccc(-c3cccnc3)cc2cc1C(c1ccc(Cl)cc1)C1(O)CCN(Cc2ccc(C)cc2)CC1.O=C(O)/C=C/C(=O)O (racemic) [Compound 71] |
| 33.82 | – | COc1nc2ccc(Br)cc2cc1C(c1ccc(F)cc1)C1(O)CCN(Cc2ccccc2)CC1.O=C(O)/C=C/C(=O)O (racemic) [Compound 72] |
| >33.79 | – | COc1nc2ccc(Br)cc2cc1C(c1ccccc1F)C1(O)CCN(Cc2ccccc2)CC1 (racemic) [Compound 83] |
| >33.79 | – | COc1nc2ccc(Br)cc2cc1C(c1cccc(F)c1)C1(O)CCN(Cc2ccccc2)CC1 (racemic) [Compound 84] |
| >44.39 | – | COc1nc2ccc(-c3ccccc3)cc2cc1C(c1ccc(Cl)cc1)C1(O)CCN(CCc2ccccc2)CC1.O=C(O)/C=C/C(=O)O (racemic) [Compound 89] |
| – | > 32.5 | COc1nc2ccc(-c3ccccc3)cc2cc1C(c1ccccc1)C1(O)CCN(Cc2ccccc2)CC1 (stereo not drawn) [Compound 4] |
| – | 8.42 (≈ 15.8 µM) | COc1nc2ccc(Br)cc2cc1C(c1ccccc1)C1(O)CCN(CCc2ccccc2)CC1 (stereo not drawn) [Compound 5] |
| – | > 34.8 | COc1nc2ccc(Br)cc2cc1[C@@H](c1ccc(Cl)cc1)C1(O)CCN(Cc2ccccc2)CC1 [Compound 7] |
| – | > 34.8 | COc1nc2ccc(Br)cc2cc1[C@H](c1ccc(Cl)cc1)C1(O)CCN(Cc2ccccc2)CC1 [Compound 8] |
| – | 11.6 (≈ 25.1 µM) | COc1nc2ccc(Br)cc2cc1C(c1ccc(Cl)cc1)C1(O)CCNCC1 (stereo not drawn) [Compound 14] |

| IC90 (μg/ml) STA B29213 [µg/mL] | IC90 [µg/mL] | Compound |
| --- | --- | --- |
| – | 11.3 (≈ 17.7 µM) | COc1nc2ccc(Br)cc2cc1C(c1ccc(Cl)cc1)C1(O)CCN(C2CCN(Cc3ccccc3)CC2)CC1 (stereo not drawn) [Compound 15] |
| 32.65 (≈ 63.1 µM) | – | COc1nc2ccc(Br)cc2cc1C(c1ccccc1)C1(O)CCN(Cc2ccccc2)CC1 (stereo not drawn) [Compound 29] |
| >29.62 | – | COc1nc2ccc(Br)cc2cc1C(c1ccccc1)C1(O)CCN(C(C)C)CC1 (stereo not drawn) [Compound 30] |
| >43.03 | – | COc1nc2ccc(Br)cc2cc1C(c1ccc(Cl)cc1)C1(O)CCN(Cc2ccccc2)CC1.O=C(O)/C=C/C(=O)O (stereo not drawn) [Compound 35] |
| 32.85 | – | COc1nc2ccc(Br)cc2cc1C(c1ccc(Cl)cc1)C1(O)CCN(Cc2ccccc2)CC1.O=C(O)C(=O)O (stereo not drawn) [Compound 36] |
| >33.54 | – | COc1nc2ccc(Br)cc2cc1C(c1ccccc1)C1(O)CCN(Cc2cccc(C)c2)CC1 (stereo not drawn) [Compound 38] |
| 33.54 (≈ 63.1 µM) | – | COc1nc2ccc(Br)cc2cc1C(c1ccc(C)cc1)C1(O)CCN(Cc2ccccc2)CC1 (stereo not drawn) [Compound 39] |
| 13.75 (≈ 25.1 µM) | – | COc1ccc(C(c2cc3cc(Br)ccc3nc2OC)C2(O)CCN(Cc3ccccc3)CC2)cc1 (stereo not drawn) [Compound 40] |
| 19.23 | – | COc1nc2ccc(Br)cc2cc1C(c1ccc(Cl)cc1)C1(O)CCNCC1.O=C(O)/C=C/C(=O)O (stereo not drawn) [Compound 45] |
| >35.71 | – | COc1nc2ccc(Br)cc2cc1C(c1ccc(Cl)cc1)C1(O)CCN(CCc2ccccc2)CC1 (stereo not drawn) [Compound 46] |
| >35.71 | – | COc1nc2ccc(Br)cc2cc1C(c1ccc(Cl)c(C)c1)C1(O)CCN(Cc2ccccc2)CC1 (stereo not drawn) [Compound 48] |
| >44.06 | – | COc1nc2ccc(Br)cc2cc1C(c1ccc(Cl)c(C)c1)C1(O)CCN(Cc2ccccc2)CC1.O=C(O)/C=C/C(=O)O (stereo not drawn) [Compound 49] |
| >44.89 | – | COc1nc2ccc(Br)cc2cc1C(c1ccc(Cl)c(F)c1)C1(O)CCN(Cc2ccccc2)CC1.O=C(O)/C=C/C(=O)O (stereo not drawn) [Compound 53] |
| >43.45 | – | COc1nc2ccc(Br)cc2cc1C(c1cc2ccccc2o1)C1(O)CCN(Cc2ccccc2)CC1.O=C(O)/C=C/C(=O)O (stereo not drawn) [Compound 54] |
| >43.09 | – | COc1nc2ccc(Br)cc2cc1C(c1ccc(F)c(C)c1)C1(O)CCN(Cc2ccccc2)CC1.O=C(O)/C=C/C(=O)O (stereo not drawn) [Compound 55] |
| >44.60 | – | COc1nc2ccc(Br)cc2cc1C(c1ccc2ccccc2c1)C1(O)CCN(Cc2ccccc2)CC1.O=C(O)/C=C/C(=O)O (stereo not drawn) [Compound 56] |
| 20.32 | – | COc1nc2ccc(Br)cc2cc1C(c1cccnc1)C1(O)CCN(Cc2ccccc2)CC1.O=C(O)/C=C/C(=O)O (stereo not drawn) [Compound 57] |
| 17.45 (≈ 31.6 µM) | – | COc1nc2ccc(Br)cc2cc1C(c1cccc(Cl)c1)C1(O)CCN(Cc2ccccc2)CC1 (stereo not drawn) [Compound 59] |
| >43.03 | – | COc1nc2ccc(Br)cc2cc1C(c1cccc(Cl)c1)C1(O)CCN(Cc2ccccc2)CC1.O=C(O)/C=C/C(=O)O (stereo not drawn) [Compound 60] |
| >44.79 | – | COc1nc2ccc(Br)cc2cc1C(c1ccc(Cl)cc1)C1(O)CCN(Cc2ccccc2C)CC1.O=C(O)/C=C/C(=O)O (stereo not drawn) [Compound 63] |
| >46.15 | – | COc1nc2ccc(Br)cc2cc1C(c1ccc(Cl)c(Cl)c1)C1(O)CCN(Cc2ccccc2)CC1.O=C(O)/C=C/C(=O)O (stereo not drawn) [Compound 65] |
| >40.66 | – | COc1nc2ccc(Br)cc2cc1C(c1ccco1)C1(O)CCN(Cc2ccccc2)CC1.O=C(O)/C=C/C(=O)O (stereo not drawn) [Compound 68] |
| >41.02 | – | C=Cc1ccc2nc(OC)c(C(c3ccc(Cl)cc3)C3(O)CCN(Cc4ccc(C)cc4)CC3)cc2c1.O=C(O)/C=C/C(=O)O (stereo not drawn) [Compound 73] |
| 6.95 (≈ 12.6 µM) | – | O=c1[nH]c2ccc(Br)cc2cc1C(c1ccc(Cl)cc1)C1(O)CCN(CCc2ccccc2)CC1 (stereo not drawn) [Compound 74] |
| 34.89 | – | CN(C)c1nc2ccc(Br)cc2cc1C(c1ccc(Cl)cc1)C1(O)CCN(Cc2ccccc2)CC1.O=C(O)/C=C/C(=O)O (stereo not drawn) [Compound 75] |
